In the NIST ThermoML archive (doi:10.1016/j.fluid.2017.12.010):

Experiment: xn = mol fraction of the nth substance listed
Settings: Liquid, Vibrating tube method

CCCCCCCCCCCC [dodecane] + CCCCCCCCCC
Settings	mass density [kg/m3]
323.11 K, 10000 kPa, x2 = 0.4436	728
323.11 K, 20000 kPa, x2 = 0.4436	735
323.11 K, 30000 kPa, x2 = 0.4436	742
323.12 K, 40000 kPa, x2 = 0.4436	749
323.12 K, 60000 kPa, x2 = 0.4436	761
323.12 K, 80000 kPa, x2 = 0.4436	771
323.13 K, 100000 kPa, x2 = 0.4436	781
323.21 K, 100 kPa, x2 = 0.6433	715
323.21 K, 1000 kPa, x2 = 0.6433	716
323.21 K, 5000 kPa, x2 = 0.6433	720
323.21 K, 10000 kPa, x2 = 0.6433	724
323.21 K, 20000 kPa, x2 = 0.6433	732
323.22 K, 30000 kPa, x2 = 0.6433	739
323.22 K, 40000 kPa, x2 = 0.6433	746
323.22 K, 60000 kPa, x2 = 0.6433	757
323.22 K, 80000 kPa, x2 = 0.6433	768
323.22 K, 100000 kPa, x2 = 0.6433	777
323.23 K, 5000 kPa, x2 = 0.7841	717
323.24 K, 100 kPa, x2 = 0.7841	712
323.24 K, 1000 kPa, x2 = 0.7841	713
323.24 K, 10000 kPa, x2 = 0.7841	721
323.24 K, 20000 kPa, x2 = 0.7841	729
323.24 K, 30000 kPa, x2 = 0.7841	736
323.24 K, 40000 kPa, x2 = 0.7841	743
323.24 K, 60000 kPa, x2 = 0.7841	755
323.24 K, 80000 kPa, x2 = 0.7841	765
323.24 K, 99990 kPa, x2 = 0.7841	775
332.74 K, 100 kPa, x2 = 0	720
332.74 K, 1000 kPa, x2 = 0	721
332.74 K, 5000 kPa, x2 = 0	725
332.74 K, 10000 kPa, x2 = 0	729
332.74 K, 20000 kPa, x2 = 0	737
332.74 K, 30000 kPa, x2 = 0	744
332.74 K, 40000 kPa, x2 = 0	750
332.74 K, 50000 kPa, x2 = 0	757
332.74 K, 60000 kPa, x2 = 0	762
332.74 K, 70000 kPa, x2 = 0	768
332.74 K, 80000 kPa, x2 = 0	773
332.74 K, 90000 kPa, x2 = 0	778
332.75 K, 100000 kPa, x2 = 0	782
332.97 K, 100 kPa, x2 = 0.4436	712
332.98 K, 1000 kPa, x2 = 0.4436	713
332.99 K, 5000 kPa, x2 = 0.4436	717
332.99 K, 10000 kPa, x2 = 0.4436	721
332.99 K, 20000 kPa, x2 = 0.4436	729
333 K, 100 kPa, x2 = 0.2297	716
333 K, 1000 kPa, x2 = 0.2297	717
333 K, 5000 kPa, x2 = 0.2297	720
333 K, 30000 kPa, x2 = 0.4436	736
333 K, 40000 kPa, x2 = 0.4436	743
333.01 K, 10000 kPa, x2 = 0.2297	725
333.01 K, 20000 kPa, x2 = 0.2297	733
333.01 K, 60000 kPa, x2 = 0.4436	755
333.01 K, 80000 kPa, x2 = 0.4436	766
333.01 K, 100000 kPa, x2 = 0.4436	776
333.02 K, 30000 kPa, x2 = 0.2297	740
333.02 K, 40000 kPa, x2 = 0.2297	747
333.02 K, 60000 kPa, x2 = 0.2297	758
333.03 K, 80000 kPa, x2 = 0.2297	769
333.03 K, 100000 kPa, x2 = 0.2297	779
333.06 K, 100 kPa, x2 = 0.7841	705
333.07 K, 1000 kPa, x2 = 0.7841	706
333.07 K, 40000 kPa, x2 = 0.7841	737
333.08 K, 5000 kPa, x2 = 0.7841	710
333.08 K, 10000 kPa, x2 = 0.7841	714
333.08 K, 20000 kPa, x2 = 0.7841	723
333.08 K, 30000 kPa, x2 = 0.7841	730
333.08 K, 60000 kPa, x2 = 0.7841	749
333.08 K, 80000 kPa, x2 = 0.7841	760
333.08 K, 100000 kPa, x2 = 0.7841	770
333.09 K, 100 kPa, x2 = 0.6433	708
333.09 K, 1000 kPa, x2 = 0.6433	709
333.09 K, 5000 kPa, x2 = 0.6433	713
333.09 K, 10000 kPa, x2 = 0.6433	717
333.09 K, 30000 kPa, x2 = 0.6433	733
333.1 K, 20000 kPa, x2 = 0.6433	725
333.1 K, 40000 kPa, x2 = 0.6433	740
333.1 K, 60000 kPa, x2 = 0.6433	752
333.1 K, 80000 kPa, x2 = 0.6433	763
333.1 K, 100000 kPa, x2 = 0.6433	772
342.67 K, 100 kPa, x2 = 0	713
342.67 K, 1000 kPa, x2 = 0	714
342.67 K, 5000 kPa, x2 = 0	718
342.67 K, 10000 kPa, x2 = 0	722
342.67 K, 20000 kPa, x2 = 0	731
342.67 K, 30000 kPa, x2 = 0	738
342.67 K, 40000 kPa, x2 = 0	745
342.67 K, 50000 kPa, x2 = 0	751
342.67 K, 60000 kPa, x2 = 0	757
342.67 K, 69990 kPa, x2 = 0	763
342.67 K, 80000 kPa, x2 = 0	768
342.67 K, 90000 kPa, x2 = 0	773
342.67 K, 100000 kPa, x2 = 0	778
342.92 K, 100 kPa, x2 = 0.2297	709
342.92 K, 100 kPa, x2 = 0.4436	705
342.92 K, 1000 kPa, x2 = 0.2297	710
342.92 K, 1000 kPa, x2 = 0.4436	706
342.92 K, 5000 kPa, x2 = 0.2297	714
342.92 K, 5000 kPa, x2 = 0.4436	710
342.92 K, 10000 kPa, x2 = 0.2297	718
342.92 K, 10000 kPa, x2 = 0.4436	714
342.92 K, 20000 kPa, x2 = 0.2297	727
342.93 K, 100 kPa, x2 = 0.6433	701
342.93 K, 1000 kPa, x2 = 0.6433	702
342.93 K, 20000 kPa, x2 = 0.4436	723
342.93 K, 30000 kPa, x2 = 0.2297	734
342.93 K, 30000 kPa, x2 = 0.4436	731
342.93 K, 40000 kPa, x2 = 0.2297	741
342.93 K, 40000 kPa, x2 = 0.4436	738
342.93 K, 60000 kPa, x2 = 0.2297	753
342.93 K, 60000 kPa, x2 = 0.4436	750
342.93 K, 80000 kPa, x2 = 0.4436	761
342.93 K, 100000 kPa, x2 = 0.4436	771
342.94 K, 5000 kPa, x2 = 0.6433	706
342.94 K, 10000 kPa, x2 = 0.6433	710
342.94 K, 20000 kPa, x2 = 0.6433	719
342.94 K, 30000 kPa, x2 = 0.6433	727
342.94 K, 40000 kPa, x2 = 0.6433	734
342.94 K, 60000 kPa, x2 = 0.6433	747
